From ChEMBL document CHEMBL3856205, “Synthesis and biological evaluation of novel 4-hydroxytamoxifen analogs as estrogen-related receptor gamma inverse agonists” (Eur J Med Chem, 2016)
Each block holds one compound with its values, some of them ahead of it.

Key:
[1] = biological target: T1, Estrogen-related receptor gamma (Homo sapiens, UniProt P62508)
T1 sequence (P62508 whole entry): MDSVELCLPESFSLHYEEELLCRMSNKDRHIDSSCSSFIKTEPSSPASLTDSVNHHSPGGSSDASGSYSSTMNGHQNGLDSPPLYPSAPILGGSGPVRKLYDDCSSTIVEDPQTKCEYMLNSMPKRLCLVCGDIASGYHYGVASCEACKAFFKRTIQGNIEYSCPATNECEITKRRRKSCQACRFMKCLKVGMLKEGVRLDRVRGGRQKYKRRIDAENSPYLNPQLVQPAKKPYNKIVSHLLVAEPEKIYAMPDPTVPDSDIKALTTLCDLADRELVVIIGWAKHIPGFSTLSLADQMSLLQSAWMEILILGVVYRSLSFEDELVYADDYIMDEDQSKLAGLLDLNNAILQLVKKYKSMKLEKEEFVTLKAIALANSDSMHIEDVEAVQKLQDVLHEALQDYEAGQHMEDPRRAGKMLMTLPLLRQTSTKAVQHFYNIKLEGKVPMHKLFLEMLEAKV
Description: Inhibition of fluorescien-conjugated coactivator PGC1a binding to GST-tagged human ERRgamma LBD after 1 hr by TR-FRET assay

[2] = biological target: T2, Steroid hormone receptor ERR1 (Homo sapiens, UniProt P11474); test: Inhibition of fluorescien-conjugated coactivator PGC1a binding to ERRalpha (unknown origin) after 1 hr by TR-FRET assay
T2 sequence (P11474 whole entry): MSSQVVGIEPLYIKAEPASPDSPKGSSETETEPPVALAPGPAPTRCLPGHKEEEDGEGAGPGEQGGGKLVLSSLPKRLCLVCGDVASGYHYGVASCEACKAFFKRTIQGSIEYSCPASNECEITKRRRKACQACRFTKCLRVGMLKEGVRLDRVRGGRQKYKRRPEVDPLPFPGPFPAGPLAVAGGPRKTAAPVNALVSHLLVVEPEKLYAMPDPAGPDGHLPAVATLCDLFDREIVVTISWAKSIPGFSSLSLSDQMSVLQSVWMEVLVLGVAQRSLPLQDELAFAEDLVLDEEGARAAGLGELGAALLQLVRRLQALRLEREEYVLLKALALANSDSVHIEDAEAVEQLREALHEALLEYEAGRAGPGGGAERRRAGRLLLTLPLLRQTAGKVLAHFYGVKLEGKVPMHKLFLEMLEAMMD

CYP1A2 = biological target: T3, CYP1A2 (Homo sapiens, UniProt P05177); test: Inhibition of CYP1A2 in human liver microsomes assessed as remaining activity by measuring phenacetin O-deethylase activity at 10 uM pre-incubated for 5 mins followed by NADPH regenerating system addition by LC-MS/MS analysis relative to control; type: ADME; details: probe phenacetin (O-deethylation), read-out: Activity
T3 sequence (P05177 whole entry): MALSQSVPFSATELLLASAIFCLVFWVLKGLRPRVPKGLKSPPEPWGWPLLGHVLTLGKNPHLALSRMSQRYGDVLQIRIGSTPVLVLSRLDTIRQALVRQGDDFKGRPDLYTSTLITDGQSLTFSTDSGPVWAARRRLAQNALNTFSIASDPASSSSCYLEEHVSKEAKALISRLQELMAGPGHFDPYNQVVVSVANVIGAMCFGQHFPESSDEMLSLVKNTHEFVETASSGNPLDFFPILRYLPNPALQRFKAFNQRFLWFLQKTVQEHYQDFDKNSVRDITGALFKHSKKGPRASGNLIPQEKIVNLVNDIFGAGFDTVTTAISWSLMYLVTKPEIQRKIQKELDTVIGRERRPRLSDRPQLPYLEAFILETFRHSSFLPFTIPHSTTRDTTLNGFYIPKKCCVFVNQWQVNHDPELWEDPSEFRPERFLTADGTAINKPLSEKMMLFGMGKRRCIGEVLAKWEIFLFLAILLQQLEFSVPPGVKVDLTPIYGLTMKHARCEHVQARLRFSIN

[3] = biological target: T4, Steroid hormone receptor ERR2 (Homo sapiens, UniProt O95718); test: Inhibition of fluorescien-conjugated coactivator PGC1a binding to ERRbeta (unknown origin) after 1 hr by TR-FRET assay
T4 sequence (O95718 whole entry): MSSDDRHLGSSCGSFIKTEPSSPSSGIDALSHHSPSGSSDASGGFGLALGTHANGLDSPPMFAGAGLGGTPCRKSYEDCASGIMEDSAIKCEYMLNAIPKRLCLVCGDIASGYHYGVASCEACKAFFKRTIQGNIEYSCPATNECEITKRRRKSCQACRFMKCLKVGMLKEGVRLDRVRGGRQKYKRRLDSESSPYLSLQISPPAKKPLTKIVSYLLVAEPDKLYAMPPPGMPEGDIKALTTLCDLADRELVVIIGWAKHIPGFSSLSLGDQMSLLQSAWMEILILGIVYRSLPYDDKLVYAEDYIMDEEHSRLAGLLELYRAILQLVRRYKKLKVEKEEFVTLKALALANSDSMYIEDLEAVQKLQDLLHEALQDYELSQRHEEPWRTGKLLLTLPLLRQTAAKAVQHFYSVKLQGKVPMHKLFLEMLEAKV

CYP2C9 = CYP2C9 (Homo sapiens, UniProt P11712); test: Inhibition of CYP2C9 in human liver microsomes assessed as remaining activity by measuring tolbutamide 4-hydroxylase activity at 10 uM pre-incubated for 5 mins followed by NADPH regenerating system addition by LC-MS/MS analysis relative to control; type: ADME; details: probe tolbutamide (4-hydroxylation), read-out: Activity
Sequence of CYP2C9 (P11712 whole entry): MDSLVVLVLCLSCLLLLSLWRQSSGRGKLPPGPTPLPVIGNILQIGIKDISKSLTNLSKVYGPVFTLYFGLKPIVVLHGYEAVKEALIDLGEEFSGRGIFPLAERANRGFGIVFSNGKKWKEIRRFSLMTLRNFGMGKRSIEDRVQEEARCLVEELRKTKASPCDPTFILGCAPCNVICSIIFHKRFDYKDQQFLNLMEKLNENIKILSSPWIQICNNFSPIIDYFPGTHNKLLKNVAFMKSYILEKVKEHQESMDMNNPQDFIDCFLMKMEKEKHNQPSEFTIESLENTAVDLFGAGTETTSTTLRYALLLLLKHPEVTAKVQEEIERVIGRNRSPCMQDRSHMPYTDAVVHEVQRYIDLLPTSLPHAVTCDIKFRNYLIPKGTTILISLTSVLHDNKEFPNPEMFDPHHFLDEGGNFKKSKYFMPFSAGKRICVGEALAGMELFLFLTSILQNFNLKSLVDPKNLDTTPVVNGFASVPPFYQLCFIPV

CYP2C19 = CYP2C19 (Homo sapiens, UniProt P33261); test: Inhibition of CYP2C19 in human liver microsomes assessed as remaining activity by measuring S-mephenytoin 4-hydroxylase activity at 10 uM pre-incubated for 5 mins followed by NADPH regenerating system addition by LC-MS/MS analysis relative to control; type: ADME; details: probe S-mephenytoin (4-hydroxylation), read-out: Activity
Sequence of CYP2C19 (P33261 whole entry): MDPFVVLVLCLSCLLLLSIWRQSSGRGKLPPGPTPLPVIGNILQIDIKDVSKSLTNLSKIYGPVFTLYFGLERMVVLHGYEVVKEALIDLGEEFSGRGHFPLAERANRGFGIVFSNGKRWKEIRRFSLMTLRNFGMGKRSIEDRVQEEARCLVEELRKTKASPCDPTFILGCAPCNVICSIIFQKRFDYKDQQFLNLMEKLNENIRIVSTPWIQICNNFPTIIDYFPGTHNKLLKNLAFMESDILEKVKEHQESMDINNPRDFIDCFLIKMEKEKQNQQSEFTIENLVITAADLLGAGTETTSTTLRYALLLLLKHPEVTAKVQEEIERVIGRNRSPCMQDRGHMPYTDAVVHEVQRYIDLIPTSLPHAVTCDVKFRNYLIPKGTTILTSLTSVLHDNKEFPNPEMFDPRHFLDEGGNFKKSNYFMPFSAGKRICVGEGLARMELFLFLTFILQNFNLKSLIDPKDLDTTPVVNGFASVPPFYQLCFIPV

CYP2D6 = CYP2D6 (Homo sapiens, UniProt P10635); test: Inhibition of CYP2D6 in human liver microsomes assessed as remaining activity by measuring dextromethorphan O-demethylase activity at 10 uM pre-incubated for 5 mins followed by NADPH regenerating system addition by LC-MS/MS analysis relative to control; type: ADME; details: probe dextromethorphan (O-demethylation), read-out: Activity
Sequence of CYP2D6 (P10635 whole entry): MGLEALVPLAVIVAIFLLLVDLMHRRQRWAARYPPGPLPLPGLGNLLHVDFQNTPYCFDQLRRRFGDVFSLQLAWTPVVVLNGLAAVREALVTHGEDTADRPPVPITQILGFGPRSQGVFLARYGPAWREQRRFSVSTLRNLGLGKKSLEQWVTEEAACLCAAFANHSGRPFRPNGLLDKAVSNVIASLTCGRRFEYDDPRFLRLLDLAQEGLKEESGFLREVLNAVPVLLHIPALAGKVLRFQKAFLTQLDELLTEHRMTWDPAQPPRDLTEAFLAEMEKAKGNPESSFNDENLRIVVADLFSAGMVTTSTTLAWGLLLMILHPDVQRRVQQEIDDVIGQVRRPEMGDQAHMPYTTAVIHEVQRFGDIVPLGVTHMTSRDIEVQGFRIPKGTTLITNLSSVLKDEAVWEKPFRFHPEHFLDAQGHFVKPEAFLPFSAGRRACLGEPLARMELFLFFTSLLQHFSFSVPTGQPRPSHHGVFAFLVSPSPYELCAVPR

CYP3A4 = CYP3A4 (Homo sapiens, UniProt P08684); test: Inhibition of CYP3A4 in human liver microsomes assessed as remaining activity by measuring midazolam 1'-hydroxylase activity at 10 uM pre-incubated for 5 mins followed by NADPH regenerating system addition by LC-MS/MS analysis relative to control; type: ADME; details: probe midazolam (1'-hydroxylation), read-out: Activity
Sequence of CYP3A4 (P08684 whole entry): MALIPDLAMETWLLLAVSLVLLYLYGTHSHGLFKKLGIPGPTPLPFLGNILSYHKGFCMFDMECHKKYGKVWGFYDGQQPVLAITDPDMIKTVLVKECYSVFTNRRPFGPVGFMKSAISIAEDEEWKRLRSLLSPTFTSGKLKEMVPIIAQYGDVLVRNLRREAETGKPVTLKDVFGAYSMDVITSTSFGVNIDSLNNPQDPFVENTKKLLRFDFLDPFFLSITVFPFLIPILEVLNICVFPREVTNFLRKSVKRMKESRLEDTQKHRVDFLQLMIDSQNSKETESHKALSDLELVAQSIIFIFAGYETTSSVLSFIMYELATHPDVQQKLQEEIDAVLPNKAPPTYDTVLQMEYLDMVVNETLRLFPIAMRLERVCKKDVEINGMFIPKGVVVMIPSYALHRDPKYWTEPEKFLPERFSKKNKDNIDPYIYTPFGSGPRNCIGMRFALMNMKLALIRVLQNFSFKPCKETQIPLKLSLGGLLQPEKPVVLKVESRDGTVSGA

[4] = Metabolic stability in dog liver microsomes assessed as compound remaining at 1 uM after 30 mins in presence of NADPH by LC-MS/MS analysis; type: ADME, Canis lupus familiaris; details: read-out: Stability
[5] = Permeability of the compound in PBS at pH 7.4 at 10 uM after 5 hrs by LC-MS/MS analysis; type: ADME; details: not told, read-out: permeability
[6] = biological target: T1, Estrogen-related receptor gamma; remark: listed apart in the source
Description: Inverse agonist activity at ERRgamma (unknown origin) expressed in human AD293 cells after 24 hrs by beta-galactosidase/luciferase reporter gene assay

in vitro [7] = details: human, liver microsomes
Description: Metabolic stability in human liver microsomes assessed as compound remaining at 1 uM after 30 mins in presence of NADPH by LC-MS/MS analysis

in vitro [8] = details: rat, liver microsomes
Description: Metabolic stability in rat liver microsomes assessed as compound remaining at 1 uM after 30 mins in presence of NADPH by LC-MS/MS analysis

in vitro [9] = details: mouse, liver microsomes
Description: Metabolic stability in mouse liver microsomes assessed as compound remaining at 1 uM after 30 mins in presence of NADPH by LC-MS/MS analysis

IC50 [1]: 1.3 µM
Structure (SMILES): CN(C)CCOc1ccc(/C(=C(/CCCO)c2ccccc2)c2ccc(C(F)(F)F)cc2)cc1

IC50 [1]: > 10 µM
Structure (SMILES): CN(C)CCOc1ccc(/C(=C(/CCCO)c2ccccc2)c2ccc(S(C)(=O)=O)cc2)cc1

IC50 [2]: > 10 µM | activity at 10 µM (CYP1A2): 96% | IC50 [3]: > 10 µM | activity at 10 µM (CYP2C9): 90% | activity at 10 µM (CYP2C19): 64% | activity at 10 µM (CYP2D6): 93% | activity at 10 µM (CYP3A4): 79% | remaining at 0.5 h, 1 µM [4]: 19% | Papp at 5 h, 10 µM [5]: 0.36 ×10⁻⁶ cm/s | IC50 [1]: 0.09 µM | IC50 [6]: 0.058 µM | remaining at 0.5 h, 1 µM (in vitro [7]): 72% | remaining at 0.5 h, 1 µM (in vitro [8]): 19% | remaining at 0.5 h, 1 µM (in vitro [9]): 13%
Structure (SMILES): CN(C)CCCOc1ccc(/C(=C(/CCCO)c2ccccc2)c2ccc(O)cc2)cc1.Cl

activity at 10 µM (CYP1A2): 84% | activity at 10 µM (CYP2C9): 73% | activity at 10 µM (CYP2C19): 78% | activity at 10 µM (CYP2D6): 82% | activity at 10 µM (CYP3A4): 83% | Papp at 5 h, 10 µM [5]: 0.43 ×10⁻⁶ cm/s | remaining at 0.5 h, 1 µM (in vitro [7]): 43% | remaining at 0.5 h, 1 µM (in vitro [8]): 26%
Structure (SMILES): CN(C)CCOc1ccc(/C(=C(/CCCO)c2ccccc2)c2ccc(O)cc2)cc1.Cl

IC50 [1]: > 10 µM
Structure (SMILES): CN(C)CCOc1ccc(/C(=C(/CCCO)c2ccccc2)c2ccc(C#N)cc2)cc1

IC50 [2]: 8.01 µM | activity at 10 µM (CYP1A2): > 100% | IC50 [3]: 0.722 µM | activity at 10 µM (CYP2C9): 99% | activity at 10 µM (CYP2C19): 72% | activity at 10 µM (CYP2D6): > 100% | activity at 10 µM (CYP3A4): 93% | remaining at 0.5 h, 1 µM [4]: 21% | Papp at 5 h, 10 µM [5]: 2.12 ×10⁻⁶ cm/s | IC50 [1]: 0.02 µM | IC50 [6]: 0.048 µM | remaining at 0.5 h, 1 µM (in vitro [7]): 72% | remaining at 0.5 h, 1 µM (in vitro [8]): 35% | remaining at 0.5 h, 1 µM (in vitro [9]): 24%
Structure (SMILES): CN(C)CCOc1ccc(/C(=C(/CCCF)c2ccccc2)c2ccc(O)cc2)cc1.Cl

IC50 [1]: 3.9 µM
Structure (SMILES): CN(C)CCOc1ccc(/C(=C(/CCCO)c2ccccc2)c2ccc(F)cc2)cc1

IC50 [1]: > 10 µM
Structure (SMILES): CN(C)CCOc1ccc(/C(=C(/CCCO)c2ccccc2)c2ccncc2)cc1

The next lines start with the compound.

Structure (SMILES): CN(C)CCOc1ccc(/C(=C(/CCCO)c2ccccc2)c2ccc(F)cc2F)cc1
IC50 [1]: 6.7 µM

Structure (SMILES): CN(C)CCOc1ccc(/C(=C(/CCC(F)F)c2ccccc2)c2ccc(Br)cc2)cc1
IC50 [1]: 0.89 µM

Structure (SMILES): CN(C)CCOc1ccc(/C(=C(/CCCO)c2ccccc2)c2cccnc2)cc1
IC50 [1]: > 10 µM

Structure (SMILES): Cc1ccc(/C(=C(\CCCO)c2cccnc2)c2ccc(OCCN(C)C)cc2)cc1
IC50 [1]: > 10 µM

Structure (SMILES): CN(C)CCOc1ccc(/C(=C(/CCCO)c2ccc3cnn(C)c3c2)c2ccc(Br)cc2)cc1
IC50 [1]: 5.3 µM
